Literature values in patent EP1862927B1, “Descriptors of three-dimensional objects, uses thereof and a method to generate the same” (SILICOS NV, priority 2006, dated 2007).

Target: T1, human soluble epoxide hydrolase (Homo sapiens, UniProt P34913)
T1 sequence (P34913 1-555): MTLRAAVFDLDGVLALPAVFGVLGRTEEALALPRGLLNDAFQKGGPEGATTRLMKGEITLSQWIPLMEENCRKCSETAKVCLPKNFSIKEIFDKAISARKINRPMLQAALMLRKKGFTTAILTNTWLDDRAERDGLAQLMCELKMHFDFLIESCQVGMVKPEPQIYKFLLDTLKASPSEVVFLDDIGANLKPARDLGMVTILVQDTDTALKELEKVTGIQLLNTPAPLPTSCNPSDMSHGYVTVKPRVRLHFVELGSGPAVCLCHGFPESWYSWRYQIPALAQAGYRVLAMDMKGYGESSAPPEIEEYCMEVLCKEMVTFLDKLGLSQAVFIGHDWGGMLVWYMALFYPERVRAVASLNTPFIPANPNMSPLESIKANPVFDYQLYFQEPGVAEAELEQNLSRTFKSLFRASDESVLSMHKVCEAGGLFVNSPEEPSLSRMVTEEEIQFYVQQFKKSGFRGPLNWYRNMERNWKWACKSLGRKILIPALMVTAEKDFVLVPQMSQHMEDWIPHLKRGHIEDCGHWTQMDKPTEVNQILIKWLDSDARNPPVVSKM
Conditions: inhibition constants of urea-like molecular species taken from McElroy et al., J. Med. Chem. 46, 1066-1080

IC50: 100 nM
SMILES: O=C(NCC1CCCCC1)NC1C2CC3CC(C2)CC1C3 (stereo not shown) [molecular species 136]
